Earlier results, collected in patent USH1286H, “Method for treating peripheral atherosclerotic disease employing a cholesterol lowering drug, an ACE inhibitor, or a combination thereof” (E. R. Squibb & Sons, Inc., priority 1990, dated 1994).

Conditions: hypercholesterolemic patients; Costa et al., Am. J. Hyperten. 1988

C[C@H](CS)C(=O)N1CCC[C@H]1C(=O)O [captopril, 1-[(2S)-3-mercapto-2-methylpropionyl]-L-proline]
increase of HDL: 27% | reduction of serum cholesterol: -18%
